Test results reported in ChEMBL document CHEMBL1201862, “PubChem BioAssay data set” (2004).
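Tested at 5 concentrations; 48 h exposure; 96-well plates; endpoints linearly interpolated, else capped at highest concentration. Here, GI50 denotes the concentration required for 50% inhibition of growth.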 Calls of active or inactive are those of the source. No stated cut-off is given here; in the data, active = GI50 up to about 1.1 µM and inactive = higher.

Key:
Test in all cases: NCI-60 cell line screen, 48 h
HCT-15 = system: HCT-15
BT-549 = system: BT-549
UACC-257 = system: UACC-257
HCT-116 = system: HCT-116
OVCAR-4 = system: OVCAR-4
SF-295 = system: SF-295
UACC-62 = system: UACC-62
NCI-H460 = system: NCI-H460
LOX IMVI = system: LOX IMVI
T47D = system: T47D
SNB-19 = system: SNB-19
MDA-N = system: MDA-N
MDA-MB-231 = system: MDA-MB-231
OVCAR-3 = system: OVCAR-3
MOLT-4 = system: MOLT-4
SK-MEL-28 = system: SK-MEL-28
U-251 = system: U-251
HOP-92 = system: HOP-92
RPMI-8226 = system: RPMI-8226
RXF 393 = system: RXF 393

| Compound | GI50 (HCT-15) | GI50 (BT-549) | GI50 (UACC-257) | GI50 (HCT-116) | GI50 (OVCAR-4) | GI50 (SF-295) | GI50 (UACC-62) | GI50 (NCI-H460) | GI50 (LOX IMVI) | GI50 (T47D) | GI50 (SNB-19) | GI50 (MDA-N) | GI50 (MDA-MB-231) | GI50 (OVCAR-3) | GI50 (MOLT-4) | GI50 (SK-MEL-28) | GI50 (U-251) | GI50 (HOP-92) | GI50 (RPMI-8226) | GI50 (RXF 393) |
| --- | --- | --- | --- | --- | --- | --- | --- | --- | --- | --- | --- | --- | --- | --- | --- | --- | --- | --- | --- | --- |
| N#Cc1c(-c2nc3ccccc3s2)c(=O)oc2cc(O)ccc12 | 27.1 µM | 16.7 µM (inactive) | 24.3 µM (inactive) | 31.5 µM (inactive) | 23.1 µM (inactive) | 36.4 µM (inactive) | > 100 µM (inactive) | 27.8 µM (inactive) | 28.6 µM (inactive) | 17.7 µM (inactive) | 46 µM (inactive) | 33.1 µM (inactive) | 22.9 µM (inactive) | 2.25 µM (inactive) | 28 µM (inactive) | 41.1 µM (inactive) | 18 µM (inactive) | 3.52 µM (inactive) | 13.1 µM (inactive) | 43.6 µM (inactive) |
| C[C@]12CC[C@H]3[C@@H](CCC4=CC(=O)C=C[C@@]43O)[C@@H]1CCC2=O | 56 µM | 55.2 µM (inactive) | > 100 µM (inactive) | > 100 µM (inactive) |  | > 100 µM (inactive) | 60.1 µM (inactive) | > 100 µM (inactive) | 33.6 µM (inactive) | > 100 µM (inactive) | > 100 µM (inactive) | > 100 µM (inactive) | > 100 µM (inactive) | > 100 µM (inactive) | 27.2 µM (inactive) | > 100 µM (inactive) | > 100 µM (inactive) | 27.9 µM (inactive) | > 100 µM (inactive) | > 100 µM (inactive) |
| CCOC(=O)COc1ccc(/C=C/C(=O)c2ccc(OC)cc2)cc1 | 24.4 µM | 28.5 µM (inactive) | 23.1 µM (inactive) | 21.3 µM (inactive) |  | 29 µM (inactive) | 22.5 µM (inactive) |  | 16.3 µM (inactive) | 39.7 µM (inactive) | 41.8 µM (inactive) | 26.7 µM (inactive) | 37.6 µM (inactive) | 30 µM (inactive) | 42.9 µM (inactive) | 19.3 µM (inactive) | 14.3 µM (inactive) | 16.6 µM (inactive) | 39.3 µM (inactive) | 18.1 µM (inactive) |
| CCOC(=O)CCNC(=O)c1cc(C)cc2c1Oc1c(cc(C)cc1C(=O)NCCC(=O)OCC)S2 | > 100 µM | 68.7 µM (inactive) | 79.6 µM (inactive) | 24.9 µM (inactive) | > 100 µM (inactive) | 53.5 µM (inactive) | 38.5 µM (inactive) |  | 95.9 µM (inactive) | 28.8 µM (inactive) | 42 µM (inactive) | 88.3 µM (inactive) | 25.2 µM (inactive) | > 100 µM (inactive) | > 100 µM (inactive) | > 100 µM (inactive) | 62.5 µM (inactive) | 19.5 µM (inactive) | > 100 µM (inactive) | 20.9 µM (inactive) |
| CC(=O)O[C@H]1CC[C@@]2(C)C(=CC[C@@H]3[C@@H]2CC[C@]2(C)c4c(cc(C#N)c(=N)n4C(C)=O)C[C@@H]32)C1 | 15.2 µM | 15.4 µM (inactive) | 19.1 µM (inactive) | 14.8 µM (inactive) | 18.7 µM (inactive) | 11.4 µM (inactive) | 15.7 µM (inactive) | 16.4 µM (inactive) | 16.7 µM (inactive) | 17.6 µM (inactive) | 28 µM (inactive) | 21 µM (inactive) | 31.1 µM (inactive) | 17.6 µM (inactive) | 12.2 µM (inactive) | 18.7 µM (inactive) | 29 µM (inactive) | 14.7 µM (inactive) |  | 22.6 µM (inactive) |
| COC(=O)C1CCC(=S)N1C(=O)OCc1ccccc1 (stereo unspecified) | 92.7 µM | > 100 µM (inactive) | 66.4 µM (inactive) | 83.9 µM (inactive) | > 100 µM (inactive) | 78 µM (inactive) | > 100 µM (inactive) | 39.5 µM (inactive) |  | > 100 µM (inactive) | > 100 µM (inactive) | > 100 µM (inactive) | > 100 µM (inactive) | 78.3 µM (inactive) | > 100 µM (inactive) | > 100 µM (inactive) | 81.8 µM (inactive) | > 100 µM (inactive) | > 100 µM (inactive) | 28.4 µM (inactive) |
| C#CC(O)(c1nc2ccccc2s1)c1nc2ccccc2s1 | 20.2 µM | 16.6 µM (inactive) | 25.1 µM (inactive) | 16.3 µM (inactive) | 25.8 µM (inactive) | 24 µM (inactive) | 12.3 µM (inactive) |  | 17.8 µM (inactive) | 13.8 µM (inactive) | 36.9 µM (inactive) | 21.2 µM (inactive) | 15.7 µM (inactive) | 18.1 µM (inactive) | 28.8 µM (inactive) | 40.7 µM (inactive) | 18.7 µM (inactive) | 16.1 µM (inactive) | 21 µM (inactive) | 18.6 µM (inactive) |
| C1=C2C3=[N+](CCCCC3)CC2Cc2ccsc21 (stereo unspecified) | > 100 µM | 51.2 µM (inactive) | 23.3 µM (inactive) | > 100 µM (inactive) | 43.4 µM (inactive) | 44.3 µM (inactive) | > 100 µM (inactive) | 29.9 µM (inactive) | 84.7 µM (inactive) | 63.5 µM (inactive) | 81.1 µM (inactive) | > 100 µM (inactive) | > 100 µM (inactive) | 56.5 µM (inactive) | > 100 µM (inactive) | > 100 µM (inactive) | 17.2 µM (inactive) | 76.7 µM (inactive) |  | > 100 µM (inactive) |
| COc1cc(C2S/C(=C/c3ccccc3)C(=O)N2c2ccccn2)cc(OC)c1OC (stereo unspecified) | 12.8 µM | 13.9 µM (inactive) | 33.1 µM (inactive) | 7.16 µM (inactive) | 19.2 µM (inactive) | 24.5 µM (inactive) | 14.7 µM (inactive) |  | 9.59 µM (inactive) | 7.35 µM (inactive) | 18.1 µM (inactive) | 14.1 µM (inactive) | 24.8 µM (inactive) | 12.4 µM (inactive) | 9.55 µM (inactive) | 23 µM (inactive) | 10.2 µM (inactive) | 8.3 µM (inactive) | 7.53 µM (inactive) | 10 µM (inactive) |
| Cc1ccc(/C=N/Nc2cnccn2)s1 | > 100 µM | > 100 µM (inactive) | > 100 µM (inactive) | > 100 µM (inactive) | > 100 µM (inactive) | > 100 µM (inactive) | > 100 µM (inactive) |  | > 100 µM (inactive) | > 100 µM (inactive) | > 100 µM (inactive) | 99.3 µM (inactive) | 96.2 µM (inactive) | > 100 µM (inactive) | 65.2 µM (inactive) | > 100 µM (inactive) | > 100 µM (inactive) | > 100 µM (inactive) | > 100 µM (inactive) | > 100 µM (inactive) |
| COc1cc2ccc1OCc1cccc(n1)COc1ccc(cc1OC)/C=N\CCNCCNCC/N=C\2 | > 100 µM | > 100 µM (inactive) | > 100 µM (inactive) | > 100 µM (inactive) | > 100 µM (inactive) |  | > 100 µM (inactive) | > 100 µM (inactive) | > 100 µM (inactive) | > 100 µM (inactive) | > 100 µM (inactive) | > 100 µM (inactive) | > 100 µM (inactive) | > 100 µM (inactive) | 46.5 µM (inactive) |  | > 100 µM (inactive) | > 100 µM (inactive) |  | > 100 µM (inactive) |
| CCC(C#N)N(Cc1cccc(CN(C(C)=O)C(C#N)CC)c1)C(C)=O (stereo unspecified) | 42.9 µM | > 100 µM (inactive) | > 100 µM (inactive) | > 100 µM (inactive) | 31.4 µM (inactive) | > 100 µM (inactive) | > 100 µM (inactive) |  | > 100 µM (inactive) | 7.24 µM (inactive) | > 100 µM (inactive) | > 100 µM (inactive) | 46.6 µM (inactive) | > 100 µM (inactive) | 5.52 µM (inactive) |  | > 100 µM (inactive) | 6.56 µM (inactive) | > 100 µM (inactive) | > 100 µM (inactive) |
| CN1C2CCC1CN(CCOC(c1ccc(F)cc1)c1ccc(F)cc1)C2 | 32.9 µM | 43.4 µM (inactive) | 19.1 µM (inactive) | 17.8 µM (inactive) | 43.8 µM (inactive) | 19.1 µM (inactive) |  | 20.9 µM (inactive) | 19.8 µM (inactive) | 24.3 µM (inactive) | > 100 µM (inactive) | 36 µM (inactive) | 22.9 µM (inactive) | 47.1 µM (inactive) | 23.6 µM (inactive) | 15.5 µM (inactive) | 26.1 µM (inactive) | 21.4 µM (inactive) | 23.9 µM (inactive) | 16.5 µM (inactive) |
| COc1ccc(/C=C2\N=C(c3ccccc3)N(C3Nc4cc5c(cc4S3)NC(N3C(=O)/C(=C/c4ccc(OC)cc4)N=C3c3ccccc3)S5)C2=O)cc1 (stereo unspecified) | 38.5 µM | 23.3 µM (inactive) | > 100 µM (inactive) | 42.3 µM (inactive) | 38.3 µM (inactive) | > 100 µM (inactive) |  | 12.7 µM (inactive) | 37.3 µM (inactive) | 65.3 µM (inactive) |  | 37.9 µM (inactive) | > 100 µM (inactive) | 43.6 µM (inactive) | 23.6 µM (inactive) | > 100 µM (inactive) | 22.9 µM (inactive) | > 100 µM (inactive) | 29.5 µM (inactive) | > 100 µM (inactive) |
| Cc1ccc(S(=O)(=O)OC2=C/C(=N\c3onc(C)c3C)c3ccccc3C2=O)cc1 | 29 µM | 33.7 µM (inactive) | 15.2 µM (inactive) | 17.6 µM (inactive) | 16.4 µM (inactive) | 32.4 µM (inactive) | 20.6 µM (inactive) | 32.8 µM (inactive) | 18.6 µM (inactive) | 24.2 µM (inactive) | 26.7 µM (inactive) | 25.2 µM (inactive) | 19.7 µM (inactive) | 16.5 µM (inactive) | 4.8 µM (inactive) | 44.3 µM (inactive) | 4 µM (inactive) | 18.8 µM (inactive) | 7.96 µM (inactive) |  |
